# PMC8512555, “Patient-Derived Tumor Chemosensitization of GKB202, an Antrodia Cinnamomea Mycelium-Derived Bioactive Compound” (Molecules, 2021)
# Experiments:
# Type in all cases: cell-based, human
# [1] = system: oral cancer (OC) patient-derived circulating tumor cells; assay: Ex vivo viability assay (CellTiter-Glo) on patient-derived CTC spheroids, oral cancer; conditions: for relative survival rate / anti-CTC effect compared with the 5-FU group: 6 days; for relative survival rate: vs untreated control cells; for drug sensitivity of OC patient organoids: Cisplatin and Carboplatin at the same concentration, Figure S3; for anti-CTC effect compared with the 5-FU group: 4 and 20 µg/mL
# Protocol: (§1) Patients who were diagnosed with oral cancer (OC), hepatocellular carcinoma (HCC) and colorectal cancer (CRC) with stage III or IV were recruited and provided written informed consent to participate in this study. For patients enrolled, clinical profiles including initial cancer staging, medication information, and treatment responses were recorded. Peripheral blood (7.5 mL) was collected in vacated ethylenediaminetetraacetic acid (EDTA) tubes and peripheral blood mononuclear cells (PBMCs) were isolated by gradient gravity centrifugation using Ficoll-Paque. Blood was added to a LeucoSep tube filling with 15 mL of Ficoll-Paque Plus in the bottom of the frit and centrifuged to obtain the PBMC fraction. Then PBMC was resuspended in phosphate-buffered saline (PBS) containing 1% BSA, 2 mM EDTA where CTC was enriched by RosetteSep® CTC Enrichment Cocktail kit. Briefly, the PBMC pellet is incubated with antibodies at room temperature, followed by the addition of PBS containing 2% FBS to the diluted sample. The diluted sample was added on the top of Ficoll-Paque for another centrifugation, then enriched cells were obtained and suspended in DMEM/F12 medium containing EGF, bFGF, and B27 supplement. Cells were seeded onto a substrate of binary colloidal crystals (BCCs). The structure of BCCs has been reported for its ability to enhance the expansion of rare cancer cells. The medium was replaced in each well every four days. Tumor-derived CTC spheroids were checked by optical microscopy.
# (§2) To test the anti-tumor activity of natural compounds, CTC spheroids were allowed to grow for four weeks then spheroids were collected to seed into other BCC plates and incubated for 16 h. Two chemotherapy drugs used as the positive control including 5-FU (30 µM), Cisplatin (14.4 µM), GKA201, GKB202 and GKC203 (4 µg/mL and 20 µg/mL) were added to cells and incubated for six days. Cell viability was determined by a CellTiter-Glo® Luminescent Cell Viability Assay (Promega Corporation, Madison, WI, US) where cells were incubated with a Cell-Titer Glo reagent for 10 min and the luminescence was read on a GloMax® Navigator Microplate Luminometer (Promega Corporation, Madison, WI, US). The relative cell viability was calculated as the percentage of cells treated with drugs or natural compounds compared with untreated control cells.
# [2] = system: hepatocellular carcinoma (HCC) patient-derived circulating tumor cells; assay: Ex vivo viability assay (CellTiter-Glo) on patient-derived CTC spheroids, hepatocellular carcinoma; conditions: 6 days; for relative survival rate: vs untreated control cells; for anti-CTC effect compared with the 5-FU group: 4 and 20 µg/mL
# Protocol: as §1, §2
# [3] = system: colorectal cancer (CRC) patient-derived circulating tumor cells; assay: Ex vivo viability assay (CellTiter-Glo) on patient-derived CTC spheroids, colorectal cancer; conditions: 6 days; for relative survival rate: vs untreated control cells; for anti-CTC effect compared with the 5-FU group: 4 and 20 µg/mL
# Protocol: as §1, §2
Compound,drug sensitivity of OC patient organoids [1],anti-CTC effect compared with the 5-FU group [1],anti-CTC effect compared with the 5-FU group [2],anti-CTC effect compared with the 5-FU group [3],also measured
O=c1[nH]cc(F)c(=O)[nH]1 [5-FU],–,–,–,–,relative survival rate ([1]; 5-FU 30 µM): 51 ± 13%; relative survival rate ([2]; 5-FU 30 µM): 43 ± 2%; relative survival rate ([3]; 5-FU 30 µM): 49 ± 13%
N.N.O=C([O-])C1(C(=O)[O-])CCC1.[Pt+2] [Carboplatin],resistant,–,–,–,–
N.N.[Cl][Pt][Cl] [Cisplatin],sensitive,–,–,–,relative survival rate ([1]; Cisplatin 14.4 µM): 21 ± 0.3%; relative survival rate ([2]; Cisplatin 14.4 µM): 28 ± 5.8%; relative survival rate ([3]; Cisplatin 14.4 µM): 49 ± 10%
CC(C)=CCOc1ccc(C2=C(CC(C)C)C(=O)OC2=O)cc1 [GKA201],–,no significance,no significance,no significance,–
CC(C)=CCOc1ccc(C2=C(CC(C)C)C(=O)N(O)C2=O)cc1 [GKC203],–,no significance,no significance,no significance,–
